Source: PubChem BioAssay AID1963847 (Molecular Pharmacology Branch, DTP, NCI, 2024)

Tested on: 415267-285-R-J2-PDC complex spheroid viability
Assay: Anticancer human tumor 415267-285-R-J2-PDC patient-derived breast carcinoma cell line growth inhibition [POLQ]
Details: for IC50: curve of first compound; for viability, T/C: stronger effect = lower value; active = viability on the fitted dose curve at most 10% of control; inactive = the rest
How it was run: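 Complex spheroid viability model combining PDC tumour cells with endothelial (HUVEC) and MSC stromal cells. Novobiocin, ART-558 or RP6685 were tested singly and in combination with standard and investigational anticancer drugs. Each was titrated in half-log steps from near clinical Cmax, or from 10 microM where Cmax was unknown.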

[1] = second compound 0.0316 µM, first compound 0.000316 µM
[2] = second compound 0.0316 µM, first compound 0.001 µM
[3] = second compound 0.0316 µM, first compound 0.00316 µM
[4] = second compound 0.0316 µM, first compound 0.01 µM
[5] = second compound 0.0316 µM, first compound 0.0316 µM
[6] = second compound 0.0316 µM, first compound 0.1 µM
[7] = second compound 0.1 µM, first compound 0.000316 µM
[8] = second compound 0.1 µM, first compound 0.001 µM
[9] = second compound 0.1 µM, first compound 0.00316 µM
[10] = second compound 0.1 µM, first compound 0.01 µM
[11] = second compound 0.1 µM, first compound 0.0316 µM
[12] = second compound 0.1 µM, first compound 0.1 µM
[13] = second compound 0.316 µM, first compound 0.000316 µM
[14] = second compound 0.316 µM, first compound 0.001 µM
[15] = second compound 0.316 µM, first compound 0.00316 µM
[16] = second compound 0.316 µM, first compound 0.01 µM
[17] = second compound 0.316 µM, first compound 0.0316 µM
[18] = second compound 0.316 µM, first compound 0.1 µM
[19] = second compound 1 µM, first compound 0.000316 µM
[20] = second compound 1 µM, first compound 0.001 µM
[21] = second compound 1 µM, first compound 0.00316 µM
[22] = second compound 1 µM, first compound 0.01 µM
[23] = second compound 1 µM, first compound 0.0316 µM
[24] = second compound 1 µM, first compound 0.1 µM
[25] = second compound 3.16 µM, first compound 0.000316 µM
[26] = second compound 3.16 µM, first compound 0.001 µM
[27] = second compound 3.16 µM, first compound 0.00316 µM
[28] = second compound 3.16 µM, first compound 0.01 µM
[29] = second compound 3.16 µM, first compound 0.0316 µM
[30] = second compound 3.16 µM, first compound 0.1 µM
[31] = second compound 10 µM, first compound 0.000316 µM
[32] = second compound 10 µM, first compound 0.001 µM
[33] = second compound 10 µM, first compound 0.00316 µM
[34] = second compound 10 µM, first compound 0.01 µM
[35] = second compound 10 µM, first compound 0.0316 µM
[36] = second compound 10 µM, first compound 0.1 µM
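Note: spheroids exposed to compounds for one week before readout.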
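Throughout, for viability, T/C: luminescence used as stand-in measure of viable cells; 100% = DMSO vehicle control viability.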

Cn1ncnc1[C@H]1c2n[nH]c(=O)c3cc(F)cc(c23)N[C@@H]1c1ccc(F)cc1 + COC1C(OC(N)=O)C(O)C(Oc2ccc3c(O)c(NC(=O)c4ccc(O)c(CC=C(C)C)c4)c(=O)oc3c2C)OC1(C)C
inactive: viability, T/C [1] 102% | viability, T/C [2] 98.6% | viability, T/C [3] 113% | viability, T/C [4] 101% | viability, T/C [5] 107% | viability, T/C [6] 93% | viability, T/C [7] 105% | viability, T/C [8] 99.3% | viability, T/C [9] 101% | viability, T/C [10] 103% | viability, T/C [11] 97.8% | viability, T/C [12] 106% | viability, T/C [13] 112% | viability, T/C [14] 99.6% | viability, T/C [15] 94.2% | viability, T/C [16] 106% | viability, T/C [17] 107% | viability, T/C [18] 104% | viability, T/C [19] 97.6% | viability, T/C [20] 93.3% | viability, T/C [21] 94.8% | viability, T/C [22] 97.9% | viability, T/C [23] 109% | viability, T/C [24] 105% | viability, T/C [25] 89.6% | viability, T/C [26] 92.9% | viability, T/C [27] 95.4% | viability, T/C [28] 105% | viability, T/C [29] 109% | viability, T/C [30] 103% | viability, T/C [31] 105% | viability, T/C [32] 101% | viability, T/C [33] 101% | viability, T/C [34] 96.3% | viability, T/C [35] 102% | viability, T/C [36] 96.1%
> 100 nM: IC50 (second compound 0.0316 µM) | IC50 (second compound 0.1 µM) | IC50 (second compound 0.316 µM) | IC50 (second compound 1 µM) | IC50 (second compound 3.16 µM) | IC50 (second compound 10 µM)

Cn1ncnc1[C@H]1c2n[nH]c(=O)c3cc(F)cc(c23)N[C@@H]1c1ccc(F)cc1 + Nc1ccc(C#CCN(C(=O)Cc2ncc(C(F)(F)F)cc2C(F)(F)F)c2ccc(F)cc2)nn1
inactive: viability, T/C [1] 101% | viability, T/C [2] 97.2% | viability, T/C [3] 101% | viability, T/C [4] 93.7% | viability, T/C [5] 95.8% | viability, T/C [6] 97.8% | viability, T/C [7] 96.7% | viability, T/C [8] 109% | viability, T/C [9] 86.9% | viability, T/C [10] 92.6% | viability, T/C [11] 99.8% | viability, T/C [12] 94.8% | viability, T/C [13] 88.7% | viability, T/C [14] 102% | viability, T/C [15] 88.2% | viability, T/C [16] 99.6% | viability, T/C [17] 95.5% | viability, T/C [18] 110% | viability, T/C [19] 98.9% | viability, T/C [20] 101% | viability, T/C [21] 109% | viability, T/C [22] 99.5% | viability, T/C [23] 105% | viability, T/C [24] 120% | viability, T/C [25] 97.8% | viability, T/C [26] 113% | viability, T/C [27] 114% | viability, T/C [28] 91.6% | viability, T/C [29] 101% | viability, T/C [30] 108% | viability, T/C [31] 89.8% | viability, T/C [32] 105% | viability, T/C [33] 108% | viability, T/C [34] 94.2% | viability, T/C [35] 101% | viability, T/C [36] 105%
> 100 nM: IC50 (second compound 0.0316 µM) | IC50 (second compound 0.1 µM) | IC50 (second compound 0.316 µM) | IC50 (second compound 1 µM) | IC50 (second compound 3.16 µM) | IC50 (second compound 10 µM)

COc1ccc([C@@H](O)c2cc(-c3ncnc4cc(N5CCOCC5)ccc34)c(F)cc2Cl)nn1 + Nc1ccc(C#CCN(C(=O)Cc2ncc(C(F)(F)F)cc2C(F)(F)F)c2ccc(F)cc2)nn1
inactive: viability, T/C [5] 94.4% | viability, T/C [6] 99.9% | viability, T/C (second compound 0.0316 µM, first compound 0.316 µM) 100% | viability, T/C (second compound 0.0316 µM, first compound 1 µM) 106% | viability, T/C (second compound 0.0316 µM, first compound 3.16 µM) 93% | viability, T/C (second compound 0.0316 µM, first compound 10 µM) 58.2% | viability, T/C [11] 108% | viability, T/C [12] 109% | viability, T/C (second compound 0.1 µM, first compound 0.316 µM) 84.7% | viability, T/C (second compound 0.1 µM, first compound 1 µM) 92.4% | viability, T/C (second compound 0.1 µM, first compound 3.16 µM) 95.2% | viability, T/C (second compound 0.1 µM, first compound 10 µM) 53.2% | viability, T/C [17] 107% | viability, T/C [18] 103% | viability, T/C (second compound 0.316 µM, first compound 0.316 µM) 107% | viability, T/C (second compound 0.316 µM, first compound 1 µM) 110% | viability, T/C (second compound 0.316 µM, first compound 3.16 µM) 84.4% | viability, T/C (second compound 0.316 µM, first compound 10 µM) 58% | viability, T/C [23] 98.7% | viability, T/C [24] 88% | viability, T/C (second compound 1 µM, first compound 0.316 µM) 104% | viability, T/C (second compound 1 µM, first compound 1 µM) 102% | viability, T/C (second compound 1 µM, first compound 3.16 µM) 91.2% | viability, T/C (second compound 1 µM, first compound 10 µM) 51.6% | viability, T/C [29] 102% | viability, T/C [30] 104% | viability, T/C (second compound 3.16 µM, first compound 0.316 µM) 108% | viability, T/C (second compound 3.16 µM, first compound 1 µM) 106% | viability, T/C (second compound 3.16 µM, first compound 3.16 µM) 93.3% | viability, T/C (second compound 3.16 µM, first compound 10 µM) 69.1% | viability, T/C [35] 105% | viability, T/C [36] 107% | viability, T/C (second compound 10 µM, first compound 0.316 µM) 102% | viability, T/C (second compound 10 µM, first compound 1 µM) 102% | viability, T/C (second compound 10 µM, first compound 3.16 µM) 89.3% | viability, T/C (second compound 10 µM, first compound 10 µM) 64.5%
> 10000 nM: IC50 (second compound 0.0316 µM) | IC50 (second compound 0.1 µM) | IC50 (second compound 0.316 µM) | IC50 (second compound 1 µM) | IC50 (second compound 3.16 µM) | IC50 (second compound 10 µM)
